Where two headings read alike, the source gives them in different places.
Legend:
TNFα = experiment: cells; assay type: cell-based, human; settings: Homo sapiens, Monocyte, LPS-stimulated human monocytes, read-out: EC50 TNF
IRAK4 enzyme = IRAK4 enzyme (Homo sapiens (Human), UniProt Q9NWZ3); experiment: biochemical; assay type: biochemical; settings: IRAK4 enzyme, 500 μM ATP
Sequence of IRAK4 enzyme (Q9NWZ3 whole entry): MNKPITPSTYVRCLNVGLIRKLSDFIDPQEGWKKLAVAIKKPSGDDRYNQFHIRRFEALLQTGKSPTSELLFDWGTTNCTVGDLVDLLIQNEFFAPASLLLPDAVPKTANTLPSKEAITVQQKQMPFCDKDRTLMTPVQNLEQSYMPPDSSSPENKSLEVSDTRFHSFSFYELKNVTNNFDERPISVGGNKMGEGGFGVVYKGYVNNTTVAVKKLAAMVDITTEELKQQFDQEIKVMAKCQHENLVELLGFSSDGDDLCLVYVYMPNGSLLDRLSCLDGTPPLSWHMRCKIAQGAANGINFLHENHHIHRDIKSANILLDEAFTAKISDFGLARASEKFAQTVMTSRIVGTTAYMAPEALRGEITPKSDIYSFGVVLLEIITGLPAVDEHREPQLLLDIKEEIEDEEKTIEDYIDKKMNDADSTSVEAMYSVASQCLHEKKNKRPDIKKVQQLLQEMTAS

Row | Compound | EC50 (TNFα; TNFα by TR-FRET) | IC50 (IRAK4 enzyme; TR-FRET) | EC50 (TNFα; TNFα content) | IC50 (IRAK4 enzyme; TR-FRET (HTRF))
1 | CC(C)(O)[C@H](F)CNC(=O)c1cnc(-c2ccc3cc(C#N)cnn23)cc1NCC1CNC1 [Example 905, (R)-4-((azetidin-3-yl-methyl)amino)-6-(3-cyanopyrrolo[1,2-b]pyridazin-7-yl)-N-(2-fluoro-3-hydroxy-3-methylbutyl)nicotinamide] | > 10000 nM | 15 nM | – | –
2 | COc1cc(Nc2cc(-c3ccc4cc(C#N)cnn34)ncc2C(=O)NC[C@@H](F)C(C)(C)O)ccc1N1CCOCC1 [Example 685, (R)-6-(3-cyanopyrrolo[1,2-b]pyridazin-7-yl)-N-(2-fluoro-3-hydroxy-3-methylbutyl)-4-((3-methoxy-4-morpholino-phenyl)amino)nicotinamide] | – | – | 398 nM | 10 nM
3 | CC(C)(O)[C@H](F)CNC(=O)c1cnc(-c2ccc3cc(C#N)cnn23)cc1NC1CCN(C2COC2)CC1 [Example 83, (R)-6-(3-cyanopyrrolo[1,2-b]pyridazin-7-yl)-N-(2-fluoro-3-hydroxy-3-methylbutyl)-4-((1-(oxetan-3-yl)piperidin-4-yl)amino) nicotinamide] | – | 1 nM | 221 nM | –
4 | CC(C)(O)[C@H](F)CNC(=O)c1cnc(-c2ccc3cc(C#N)cnn23)cc1N[C@@H]1CCCNC1 [Example 255, 6-(3-cyanopyrrolo[1,2-b]pyridazin-7-yl)-N-((R)-2-fluoro-3-hydroxy-3-methylbutyl)-4-(((R)-piperidin-3-yl)amino)nicotinamide] | – | 14 nM | 1270 nM | –
5 | CC(C)(O)[C@H](F)CNC(=O)c1cnc(-c2ccc3cc(C#N)cnn23)cc1N[C@H]1CC[C@@H](N2CCC(F)(F)C2)CC1 [Example 724, 6-(3-cyanopyrrolo[1,2-b]pyridazin-7-yl)-4-(((1s,4S)-4-(3,3-difluoropyrrolidin-1-yl)cyclohexyl)amino)-N-((R)-2-fluoro-3-hydroxy-3-methylbutyl)nicotinamide] | – | – | 59 nM | < 1 nM
6 | CCOc1cc(Nc2cc(-c3ccc4cc(C#N)cnn34)ncc2C(=O)NC[C@@H](F)C(C)(C)O)cnc1-c1cnco1 [Example 635, (R)-6-(3-cyanopyrrolo[1,2-b]pyridazin-7-yl)-4-((5-ethoxy-6-(oxazol-5-yl)pyridin-3-yl)amino)-N-(2-fluoro-3-hydroxy-3-methylbutyl)nicotinamide] | – | – | > 10000 nM | 8 nM
7 | Cc1cn2ccc(Nc3cc(-c4ccc5cc(C#N)cnn45)ncc3C(=O)NC[C@@H](F)C(C)(C)O)cc2n1 [Example 563, (R)-6-(3-cyanopyrrolo[1,2-b]pyridazin-7-yl)-N-(2-fluoro-3-hydroxy-3-methylbutyl)-4-((2-methyl-imidazo[1,2-a]pyridin-7-yl)amino)nicotinamide] | – | – | 114 nM | 2 nM
8 | COCCOc1ncc(Nc2cc(-c3ccc4cc(C#N)cnn34)ncc2C(=O)NC[C@@H](F)C(C)(C)O)cn1 [Example 663, (R)-6-(3-cyanopyrrolo[1,2-b]pyridazin-7-yl)-N-(2-fluoro-3-hydroxy-3-methylbutyl)-4-((2-(2-methoxyethoxy)pyrimidin-5-yl)amino)nicotinamide] | – | – | 52 nM | < 1 nM
9 | CC1(Nc2cc(-c3ccc4cc(C#N)cnn34)ncc2C(=O)NCC#N)COC1 [Example 612, N-(cyanomethyl)-6-(3-cyanopyrrolo[1,2-b]pyridazin-7-yl)-4-((3-methyloxetan-3-yl)amino)nicotinamide] | – | – | 51 nM | < 1 nM
10 | CC(C)Nc1cc(-c2ccc3cc(C#N)cnn23)ncc1C(=O)N[C@H]1C[C@@](C)(O)C1 [Example 120, 6-(3-cyanopyrrolo[1,2-b]pyridazin-7-yl)-N-((1s,3s)-3-hydroxy-3-methylcyclobutyl)-4-(isopropylamino) nicotinamide] | – | 8 nM | 430 nM | –
11 | CC(C)(O)[C@H](F)CNC(=O)c1cnc(-c2ccc3cc(C#N)cnn23)cc1Nc1cccc(-c2ncc[nH]2)c1 [Example 221, (R)-4-((3-(1H-imidazol-2-yl)phenyl)amino)-6-(3-cyanopyrrolo[1,2-b]pyridazin-7-yl)-N-(2-fluoro-3-hydroxy-3-methylbutyl)nicotinamide] | – | < 1 nM | 98 nM | –

Reference: patent US10336762B2 (priority 2017, dated 2019)
